Assay results taken from publication PMC3953731 (FEBS Open Bio, 2014).

T1: Ima5p (Saccharomyces cerevisiae, UniProt P40884)
T1 sequence (P40884 1-581): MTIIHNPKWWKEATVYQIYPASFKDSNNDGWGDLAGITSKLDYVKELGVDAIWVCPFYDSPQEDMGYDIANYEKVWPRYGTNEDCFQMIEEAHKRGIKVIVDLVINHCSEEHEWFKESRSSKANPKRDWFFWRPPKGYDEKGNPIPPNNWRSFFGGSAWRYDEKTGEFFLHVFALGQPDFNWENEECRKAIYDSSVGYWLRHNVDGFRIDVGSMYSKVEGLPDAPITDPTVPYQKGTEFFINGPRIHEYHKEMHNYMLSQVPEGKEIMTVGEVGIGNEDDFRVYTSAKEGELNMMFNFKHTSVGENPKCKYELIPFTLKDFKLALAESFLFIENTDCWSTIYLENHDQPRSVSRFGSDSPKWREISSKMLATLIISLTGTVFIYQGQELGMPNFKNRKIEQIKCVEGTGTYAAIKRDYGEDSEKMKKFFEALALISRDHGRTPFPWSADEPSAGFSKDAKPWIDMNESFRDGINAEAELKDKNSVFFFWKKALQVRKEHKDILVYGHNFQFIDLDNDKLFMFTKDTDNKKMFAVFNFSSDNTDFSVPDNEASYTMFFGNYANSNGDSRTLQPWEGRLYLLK


Legend:
[1] = tested on: the four isomaltases (Ima1p, Ima2p, Ima3p, Ima5p); assay: Activity of the isomaltases on substrates; type: biochemical, Saccharomyces cerevisiae; conditions: all Ima proteins
Ima3p [2] = target: T2, Ima3p (Saccharomyces cerevisiae, UniProt P0CW40); assay: Kinetic parameters for selected substrates; type: biochemical; conditions: for Km: affinity constant for the substrate; for Km / kcat: mean ± SEM; for Ki: inhibition by high concentration of substrate
Ima3pL240P = Ima3pL240P (Saccharomyces cerevisiae, UniProt P0CW40, L240P); assay: Substrate specificity of purified isomaltase variant; type: biochemical; conditions: 100 mM substrate (pNPG 5 mM), citrate–potassium phosphate buffer, pH 7, 30 °C
Ima1p [3] = target: T3, Ima1p (Saccharomyces cerevisiae, UniProt P53051); assay: Substrate specificity of purified isomaltase; type: biochemical; conditions: 100 mM substrate (pNPG 5 mM), pH 7, 30 °C; for Specific activities: citrate–potassium phosphate buffer
Ima5p [4] = target: T1, Ima5p; assay: Substrate specificity of purified isomaltase; type: biochemical; conditions: 100 mM substrate (pNPG 5 mM), pH 7, 30 °C; for Specific activities: citrate–potassium phosphate buffer
Ima5p [5] = target: T1, Ima5p; assay: Kinetic parameters for selected substrates; type: biochemical; conditions: for Km: affinity constant for the substrate; for Km / kcat: mean ± SEM; for Ki: inhibition by high concentration of substrate
Ima2p [6] = target: T4, Ima2p (Saccharomyces cerevisiae, UniProt Q08295); assay: Kinetic parameters for selected substrates; type: biochemical; conditions: for Km: affinity constant for the substrate; for Km / kcat: mean ± SEM; for Ki: inhibition by high concentration of substrate
Ima1p [7] = target: T3, Ima1p; assay: Kinetic parameters for selected substrates; type: biochemical; conditions: for Km: affinity constant for the substrate; for Km / kcat: mean ± SEM; for Ki: inhibition by high concentration of substrate
Ima3pR279Q = Ima3pR279Q (Saccharomyces cerevisiae, UniProt P0CW40, R279Q); assay: Substrate specificity of purified isomaltase variant; type: biochemical; conditions: 100 mM substrate (pNPG 5 mM), citrate–potassium phosphate buffer, pH 7, 30 °C
Ima2p [8] = target: T4, Ima2p; assay: Substrate specificity of purified isomaltase; type: biochemical; conditions: 100 mM substrate (pNPG 5 mM), pH 7, 30 °C; for Specific activities: citrate–potassium phosphate buffer
Ima3p [9] = target: T2, Ima3p; assay: Substrate specificity of purified isomaltase; type: biochemical; conditions: 100 mM substrate (pNPG 5 mM), pH 7, 30 °C; for Specific activities: citrate–potassium phosphate buffer
[10] = Thermostability assay: time-dependent heat inactivation, half-life; type: biochemical, Saccharomyces cerevisiae; conditions: pNPG 5 mM, mean ± 2 SEM
[11] = Melting temperature by differential scanning fluorimetry; type: physicochemical, Saccharomyces cerevisiae; conditions: pH 7, DSF, mean ± 2 SEM

T2 sequence (P0CW40 whole entry): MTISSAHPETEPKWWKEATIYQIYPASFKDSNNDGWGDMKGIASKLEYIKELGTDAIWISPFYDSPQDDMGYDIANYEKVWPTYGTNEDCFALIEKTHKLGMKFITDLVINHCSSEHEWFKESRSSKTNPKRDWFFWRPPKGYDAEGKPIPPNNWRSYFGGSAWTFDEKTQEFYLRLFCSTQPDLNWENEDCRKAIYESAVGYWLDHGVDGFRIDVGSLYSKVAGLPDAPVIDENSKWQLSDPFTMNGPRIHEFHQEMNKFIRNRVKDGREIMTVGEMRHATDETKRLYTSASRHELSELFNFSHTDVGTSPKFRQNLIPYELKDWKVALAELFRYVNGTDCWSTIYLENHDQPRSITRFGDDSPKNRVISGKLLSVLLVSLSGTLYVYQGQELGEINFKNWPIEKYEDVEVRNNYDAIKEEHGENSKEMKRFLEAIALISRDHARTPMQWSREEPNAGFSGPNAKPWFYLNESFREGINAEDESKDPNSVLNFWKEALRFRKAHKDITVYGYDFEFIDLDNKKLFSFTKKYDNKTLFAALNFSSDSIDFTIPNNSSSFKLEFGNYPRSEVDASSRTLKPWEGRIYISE
T4 sequence (Q08295 whole entry): as the sequence (P0CW40 whole entry) above, with T54A, L240P, R279Q counted along it
Ima3pL240P, sequence (P0CW40 whole entry L240P): as the sequence (P0CW40 whole entry) above, with L240P counted along it
T3 sequence (P53051 whole entry): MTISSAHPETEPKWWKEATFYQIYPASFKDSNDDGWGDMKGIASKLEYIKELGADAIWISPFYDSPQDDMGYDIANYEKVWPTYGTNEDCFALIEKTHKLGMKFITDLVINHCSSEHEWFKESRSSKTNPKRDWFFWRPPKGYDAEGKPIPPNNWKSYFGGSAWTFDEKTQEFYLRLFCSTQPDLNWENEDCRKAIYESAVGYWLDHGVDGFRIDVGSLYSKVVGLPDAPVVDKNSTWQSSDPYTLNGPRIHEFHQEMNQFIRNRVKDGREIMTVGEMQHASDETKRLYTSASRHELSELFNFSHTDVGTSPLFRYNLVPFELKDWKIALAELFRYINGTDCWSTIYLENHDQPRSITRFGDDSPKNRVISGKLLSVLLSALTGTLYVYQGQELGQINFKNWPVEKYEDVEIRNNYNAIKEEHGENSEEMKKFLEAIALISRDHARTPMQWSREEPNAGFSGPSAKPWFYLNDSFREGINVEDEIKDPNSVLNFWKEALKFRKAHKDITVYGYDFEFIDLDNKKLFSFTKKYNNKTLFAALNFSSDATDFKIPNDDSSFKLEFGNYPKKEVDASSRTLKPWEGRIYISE

Molecule | Ki (Ima3p [2]) | kcat (Ima3p [2]) [s⁻¹] | Specific activities (Ima3pL240P) [µmol/min/mg] | Specific activities (Ima1p [3]) [µmol/min/mg] | relative activity, velocity on isomaltose set to 100 (Ima1p [3]) [%] | Specific activities (Ima5p [4]) | relative activity, velocity on isomaltose set to 100 (Ima5p [4]) | Km (Ima5p [5]) [mM] | kcat (Ima5p [5]) [s⁻¹] | Km (Ima2p [6]) [mM] | kcat (Ima2p [6]) [s⁻¹] | Km (Ima1p [7]) [mM] | kcat (Ima1p [7]) [s⁻¹] | Specific activities (Ima3pR279Q) [µmol/min/mg] | Specific activities (Ima2p [8]) [µmol/min/mg] | relative activity, velocity on isomaltose set to 100 (Ima2p [8]) [%] | Specific activities (Ima3p [9]) [µmol/min/mg] | relative activity, velocity on isomaltose set to 100 (Ima3p [9]) [%] | Ki (Ima5p [5]) | other results
OC[C@H]1O[C@H](OC[C@H]2O[C@H](O)[C@H](O)[C@@H](O)[C@@H]2O)[C@H](O)[C@@H](O)[C@H]1O [melibiose, O-α-D-galactosyl-(1→6)-α-D-glucose] |  |  |  |  |  |  |  |  |  |  |  |  |  |  |  |  |  |  |  | activity on the substrate [1]: inactive
OC[C@H]1O[C@H](OC[C@H]2OC(O)(CO)[C@@H](O)[C@@H]2O)[C@H](O)[C@@H](O)[C@@H]1O (stereo partly drawn) [Palatinose, O-α-D-Glucosyl-(1→6)-D-fructose] | None | 6.0 ± 0.1 | 2.8 | 52 | 87 | 39 µmol/min/mg | 60% | 12 ± 3 | 56 ± 5 | 11 ± 2 | 104 ± 6 | 18 ± 4 | 78 ± 8 | 33 | 74 | 137 | 5 | 69 |  | Km (Ima3p [2]): 7 ± 0.7 mM
maltoheptaose |  |  |  |  |  |  |  |  |  |  |  |  |  |  |  |  |  |  |  | activity on the substrate [1]: No activity could be detected
OC[C@H]1O[C@H](OC[C@H]2O[C@H](O[C@H]3[C@H](O)[C@@H](O)C(O)O[C@@H]3CO)[C@H](O)[C@@H](O)[C@@H]2O)[C@H](O)[C@@H](O)[C@@H]1O (stereo partly drawn) [Panose, O-α-D-Glucosyl-(1→6)-α-D-glucosyl-(1→4)-D-glucose] | None | 0 | 0 | 3.1 | 5 | 11 µmol/min/mg | 17% | 82 ± 12 | 23 ± 1 |  | 7.7 ± 0.7 | 82 ± 17 | 6.3 ± 0.5 | 3.1 | 2.9 | 5 | 0 |  | None | more activity of Ima5p than Ima1p (Ima5p [5]; whatsoever the panose concentration): 3.5 fold; Ki (Ima2p [6]): None; Ki (Ima1p [7]): None
OC[C@H]1O[C@@](CO)(O[C@H]2O[C@H](CO)[C@@H](O)[C@H](O)[C@H]2O)[C@@H](O)[C@@H]1O [Sucrose, O-α-D-Glucosyl-(1→2)-β-D-fructose] | None | 25 ± 1 | 11.2 | 18.6 | 31 | 1.2 µmol/min/mg | 2% |  | 3.8 ± 0.2 |  | 55 ± 4 |  | 51 ± 4 | 22 | 19.7 | 36 | 10.2 | 142 | None | catalytic efficiency on sucrose, times lower than on isomaltose (Ima3p [2]): 2 times; catalytic efficiency on sucrose, times lower than on palatinose (Ima3p [2]): 4 times; relative activity, velocity on isomaltose set to 100 (Ima1p [3]; listed as sucrose): approx. 35%; lower activity of Ima5p than Ima1p (Ima5p [5]): 10 fold; Ki (Ima2p [6]): None; Ki (Ima1p [7]): None; relative activity, velocity on isomaltose set to 100 (Ima2p [8]; listed as sucrose): approx. 35%
maltopentaose |  |  |  |  |  |  |  |  |  |  |  |  |  |  |  |  |  |  |  | activity on the substrate [1]: No activity could be detected
OC[C@H]1O[C@H](OC[C@H]2O[C@H](O)[C@H](O)[C@@H](O)[C@@H]2O)[C@H](O)[C@@H](O)[C@@H]1O [Isomaltose, O-α-D-Glucosyl-(1→6)-α-D-glucose] |  | 15 ± 2 | 2.2 | 60 | 100 | 65 µmol/min/mg | 100% | 13 ± 2 | 101 ± 8 | 17 ± 2 | 97 ± 5 | 17 ± 4 | 103 ± 12 | 29 | 54 | 100 | 7.2 | 100 |  | Km (Ima3p [2]): 37 ± 9 mM
OC[C@H]1O[C@H](O[C@@H]2COC(O)(CO)[C@@H](O)[C@@H]2O)[C@H](O)[C@@H](O)[C@@H]1O (stereo partly drawn) [Leucrose, O-α-D-Glucosyl-(1→5)-D-fructose] |  |  | 0 | 8.6 | 14 | 1.1 µmol/min/mg | 2% |  |  |  |  |  |  | 1.5 | 8.6 | 16 | 0 |  |  | 
OC[C@H]1O[C@H](OC[C@H]2O[C@H](OC[C@H]3OC(O)[C@H](O)[C@@H](O)[C@@H]3O)[C@H](O)[C@@H](O)[C@@H]2O)[C@H](O)[C@@H](O)[C@@H]1O (stereo partly drawn) [Isomaltotriose, O-α-D-Glucosyl-(1→6)-α-D-glucosyl-(1→6)-D-glucose] | None | 0 |  | 7.9 | 13 | 8.6 µmol/min/mg | 13% | 83 ± 25 | 18 ± 3 | 72 ± 16 | 15 ± 2 |  | 21 ± 4 |  | 7.6 | 14 | 0 |  | None | Ki (Ima2p [6]): None; Ki (Ima1p [7]): None
COC1OC(CO)C(O)C(O)C1O (stereo not drawn) [α-MG, α-Methylglucopyranoside] | None | 14 ± 1 | 6.5 | 52 | 87 | 0 (0) μmol/min/mg | 0 (0) % |  | 0 | 28 ± 6 | 88 ± 9 | 27 ± 5 | 84 ± 8 | 50 | 55 | 102 | 11 | 153 | None | Km (Ima3p [2]): 15 ± 2 mM
Ima3p_R279Q: Ima3p variant with R279Q mutation (protein, UniProt P0CW40 1-589, looked up, variant R279Q) Oligo-1,6-glucosidase IMA3: MTISSAHPETEPKWWKEATIYQIYPASFKDSNNDGWGDMKGIASKLEYIKELGTDAIWISPFYDSPQDDMGYDIANYEKVWPTYGTNEDCFALIEKTHKLGMKFITDLVINHCSSEHEWFKESRSSKTNPKRDWFFWRPPKGYDAEGKPIPPNNWRSYFGGSAWTFDEKTQEFYLRLFCSTQPDLNWENEDCRKAIYESAVGYWLDHGVDGFRIDVGSLYSKVAGLPDAPVIDENSKWQLSDPFTMNGPRIHEFHQEMNKFIRNRVKDGREIMTVGEMQHATDETKRLYTSASRHELSELFNFSHTDVGTSPKFRQNLIPYELKDWKVALAELFRYVNGTDCWSTIYLENHDQPRSITRFGDDSPKNRVISGKLLSVLLVSLSGTLYVYQGQELGEINFKNWPIEKYEDVEVRNNYDAIKEEHGENSKEMKRFLEAIALISRDHARTPMQWSREEPNAGFSGPNAKPWFYLNESFREGINAEDESKDPNSVLNFWKEALRFRKAHKDITVYGYDFEFIDLDNKKLFSFTKKYDNKTLFAALNFSSDSIDFTIPNNSSSFKLEFGNYPRSEVDASSRTLKPWEGRIYISE |  |  |  |  |  |  |  |  |  |  |  |  |  |  |  |  |  |  |  | t1/2 ([10]; 37 °C): 9.5 ± 1.7 min; t1/2 ([10]; 40 °C): 2.0 ± 0.3 min; Tm [11]: 37.6 ± 0.8 °C
